Assay results taken from patent US20240269088A1, “PAIN RELIEF PATCH” (CS MEDICA A/S, priority 2021, published 2024).

Test system: pain
Test: Comparison of skin patches formulated with type A versus type B crystalline CBD
Format: in vivo
Excerpt: The “potency” and/or “activity” of “type A” CBD can e.g. be determined by comparing the effect using essentially identical compositions with the exception of the type and/or quantity of CBD used. Said potency, activity and or effect can e.g. be determined essentially as disclosed in the Examples by replacing the placebo with the “B-type” CBD comprising formulation. Alternatively, the potency can be determined in the quantity of CBD needed to provide the same effect, such as pain relief.
Two different sets of skin patches are provided according to Example 1, e.g. formulation A or F, the only difference being that the crystalline CBD used in the formulation is either of type A (needle-like crystals; FIG. 9) or type B (bunch/cluster-like; FIG. 10).
Type A crystalline CBD is sourced from Enecta, while type B CBD is sourced from Pharma Hemp.
Such tests can e.g. be performed, mutatis mutandis, according to Examples 1-4.

## C=C(C)[C@@H]1CCC(C)=C[C@H]1c1c(O)cc(CCCCC)cc1O [type A CBD, Cannabidiol]
Observed by the inventors, see Example 6
  Potency of CBD with needle-like crystal structure compared with CBD of crystal structure B: significantly more potent
Skin patches according to Example 1, e.g. formulation A or F, only the crystalline CBD differs
  Activity of skin patch with type A CBD compared with comparable skin patch with type B CBD: significantly more active
